{"source": "patent US8193235B2", "about": "“Compositions and methods for establishing and maintaining stem cells in an undifferentiated state” (University of Kansas, priority 2009, dated 2012)", "key": {"c-Myc": {"system": "c-Myc", "test": "GSK-3β-mediated phosphorylation of c-Myc at T58", "assay_type": "cell-based, mouse", "settings": "added in Gö6983 culture condition"}, "Akt": {"system": "Akt", "test": "Akt phosphorylation in mESCs", "assay_type": "cell-based, mouse", "procedure": "(§1) E14 ES Cell Cultures. Cells were grown in ES-IMDM media (Lonza, Walkersville, Md.) in a feeder-free condition. ES-IMDM was supplemented with 15% serum, 10^5 U/100 ml of LIF (ESGRO, Millipore, Calif.) and 0.0124% monothioglycerol (MTG; Sigma Aldrich). Cells were grown for 3-5 days with change of medium every day. For inducing differentiation in monolayer culture and to determine the effect of Gö6983 in preventing differentiation, E14 cells were cultured on gelatin-coated plastics for 8 days without LIF. Details of experiments performed at clonal-density are described herein. To maintain E14 cells with Gö6983, serum supplemented ES-IMDM was used in the presence of 5 μM Gö6983 and was passed after every 3-5 days. For all assays involving elucidation of different signaling mechanism responsible for maintenance of pluripotency, cells from a ˜70% confluent ES culture plate were washed two times with 1× phosphate-buffered saline (PBS), trypsinized and plated on a 6-well tissue culture plate and treated with or without LIF or Gö6983 or different inhibitors for ˜10 hours followed by preparation of protein lysates and RNA. The PKCζ knocked-down E14 cells that were generated in this study were maintained in serum supplemented ES-IMDM on gelatin-coated plates in the absence of Gö6983 or LIF or any other inhibitor and passed after 3-5 days. […]"}, "E14 ES cells [1]": {"system": "E14 ES cells", "test": "ES cell culture in the absence of LIF (undifferentiated state, marker expression)", "assay_type": "cell-based, mouse", "settings": "mouse ES cells, without LIF", "procedure": "E14 ES Cell Cultures. Cells were grown in ES-IMDM media (Lonza, Walkersville, Md.) in a feeder-free condition. ES-IMDM was supplemented with 15% serum, 10^5 U/100 ml of LIF (ESGRO, Millipore, Calif.) and 0.0124% monothioglycerol (MTG; Sigma Aldrich). Cells were grown for 3-5 days with change of medium every day. For inducing differentiation in monolayer culture and to determine the effect of Gö6983 in preventing differentiation, E14 cells were cultured on gelatin-coated plastics for 8 days without LIF. Details of experiments performed at clonal-density are described herein. To maintain E14 cells with Gö6983, serum supplemented ES-IMDM was used in the presence of 5 μM Gö6983 and was passed after every 3-5 days. For all assays involving elucidation of different signaling mechanism responsible for maintenance of pluripotency, cells from a ˜70% confluent ES culture plate were washed two times with 1× phosphate-buffered saline (PBS), trypsinized and plated on a 6-well tissue culture plate and treated with or without LIF or Gö6983 or different inhibitors for ˜10 hours followed by preparation of protein lysates and RNA. The PKCζ knocked-down E14 cells that were generated in this study were maintained in serum supplemented ES-IMDM on gelatin-coated plates in the absence of Gö6983 or LIF or any other inhibitor and passed after 3-5 days. For the experiments herein, cells were continuously cultured at least for 5 consecutive passages (>18 days) on gelatin-coated plates without significant differentiation.\nQuantitative RT-PCR Analysis. RNA was extracted from different cell samples with TRIZOL reagent (Invitrogen). cDNA was prepared by annealing RNA (1 μg) with 250 ng of a 5:1 mixture of random and oligo(dT) primers heated at 68° C. for 10 minutes. This was followed by incubation with Moloney murine leukemia virus reverse transcriptase (50 units) (Invitrogen, Carlsbad, Calif.) combined with 10 mM DTT, RNasin (PROMEGA, Madison, Wis.), and 0.5 mM dNTPs at 42° C. for 1 hour. Reactions were diluted to a final volume of 100 μl and heat inactivated at 97° C. for 5 minutes. Twenty μl PCR reactions contained 2 μl cDNA, 10 μl SYBR Green Master Mix (Applied Biosystems, Foster City, Calif.) and corresponding primer sets. Relative expression levels were determined from a standard curve of serial dilutions of proliferating ES cell cDNA samples and were normalized to the expression of glyceraldehyde-3-phosphate dehydrogenase (GAPDH). At least three independent experiments were done for each set of data.\nImmunostaining. Immunostaining of Oct4, and Nanog expression was performed using standard protocols. Briefly, ES cells were fixed in 4% paraformaldehyde/4% sucrose, permeabilized with 0.1% TRITON X 100 (Sigma). Cells were blocked by adding 1% fish gelatin (Sigma, St. Louis, Mo.) and incubated overnight at 4° C. with 200 μl of primary antibodies. Fluorescent-conjugated secondary antibodies (ALEXA FLUOR 488, and ALEXA FLUOR 568, Molecular Probes, Invitrogen) were used at 1:250 dilutions to visualize cells. Images were captured using a LEICA fluorescence microscope."}, "PKC β": {"system": "PKC β", "set-up": "key: X^1: PKC β1; X^2: PKC β2", "settings": "X = isoform inhibited; superscript 1 PKC β1, 2 PKC β2; cited from earlier work"}, "E14 ES cells [2]": {"system": "E14 ES cells", "test": "ES cell differentiation on collagen IV and with retinoic acid", "assay_type": "cell-based, mouse", "settings": "absence of LIF", "source_text": "ES Cell Differentiation on Collagen-IV and With Retinoic Acid. To differentiate ES cells in monolayer culture on collagen IV, around 3×10^4 cells per well were transferred to collagen IV-coated 6-well plates (BD Biosciences, Franklin Lakes, N.J.) cultured for 5 days in ES differentiation medium containing DMEM (Invitrogen), 15% FBS (selected for endothelial differentiation, Stem Cell Technologies, Vancouver, BC), sodium pyruvate and L-glutamine with or without LIF and Gö6983, and were recovered by cell dissociation buffer (BD Biosciences, Franklin Lakes, N.J.). For culturing multiple passages with Gö6983 on collagen-IV, the recovered cells were again plated at a density of ˜3×10^4 cells per well and cultured again for 5 days. […] For RA-induced differentiation on monolayer culture, ES cells were treated with all-trans-retinoic acid (Sigma, St. Louis, Mo.) in ethanol at a concentration of 1 μM with or without LIF and Gö6983 for 6 days followed by study of expression of pluripotency markers (by immunofluorescence or western blot or RT-PCR analysis)."}, "mESCs": {"system": "mESCs", "test": "Gö6983-mediated inhibition of mESC differentiation in presence of pathway inhibitors", "assay_type": "cell-based, mouse", "settings": "added to Gö6983 culture", "procedure": "Inhibitors. Gö6983 was purchased from three different companies (Sigma, St. Louis, Mo.; EMD Chemicals Inc.; and Tocris Biosciences) for validation. In all experiments except the concentration profile, Gö6983 was used at 5 μM final concentration. […] Rottlerin (0.1-5 μM), and RO-318425 (0.1-5 μM) were purchased from EMD Chemicals. Jak Inhibitor I (10 μM), PD0325901 (1 μM) and AKT inhibitor IX (10 μM) were from Calbiochem and CHIR99021 (3 μM) was purchased from Stemgent.\nE14 ES Cell Cultures. Cells were grown in ES-IMDM media (Lonza, Walkersville, Md.) in a feeder-free condition. ES-IMDM was supplemented with 15% serum, 10^5 U/100 ml of LIF (ESGRO, Millipore, Calif.) and 0.0124% monothioglycerol (MTG; Sigma Aldrich). Cells were grown for 3-5 days with change of medium every day. For inducing differentiation in monolayer culture and to determine the effect of Gö6983 in preventing differentiation, E14 cells were cultured on gelatin-coated plastics for 8 days without LIF. Details of experiments performed at clonal-density are described herein. To maintain E14 cells with Gö6983, serum supplemented ES-IMDM was used in the presence of 5 μM Gö6983 and was passed after every 3-5 days. […]"}, "ERK1/2": {"system": "ERK1/2", "test": "ERK1/2 phosphorylation in ES cells", "assay_type": "cell-based, mouse", "settings": "combination of Gö6983 and PD0325901", "procedure": "as §1"}, "p90Rsk1 (Rsk1)": {"system": "p90Rsk1 (Rsk1)", "test": "Phosphorylation of p90Rsk1", "assay_type": "cell-based, mouse", "settings": "added to Gö6983-treated cells", "procedure": "Western Blot Analysis. Whole cell lysates were prepared in SDS-gel loading buffer and resolved by 10% PAGE. The antibodies used for this study included β-actin Clone AC-15 from Sigma; p-STAT3 (Tyr705), p-p44/42 MAPK (tyr202/tyr204), p44/42 MAPK, GSK3β, Phospho Akt (Ser473), Akt, p-NFκβ p65 (Ser536), c-Myc, p-c-Myc (Thr58/Ser62), p-p90RSK (Thr359/Ser363), RSK1, Suz12 (D39F6), and Ezh2 (AC22) from Cell Signaling Technology; STAT3 (C-20), Oct-4 (C-10), Nanog (M-149), PKC α (C-20), PKC βI (C-16), PKC βII (C-18), PKC γ (C-19), PKC δ (C-20), PKC ζ (c-20), p-PKC ζ (Thr 410)-R, p-NFκβ p65 (ser311), and RelA (p65) from Santa Cruz Biotechnology; p-LGL1/LGL2 (S650/S654), SSEA4and H3K4Me3 from Abcam; LGL2 (M06), clone 4G2 from Abnova; β-Catenin from BD Transduction Laboratories, and H3K27Me3 and H3K9Me3 from Millipore."}}, "data": [{"compound": "Cc1c[nH]c(-c2cnc(NCCNc3ccc(C#N)cn3)nc2-c2ccc(Cl)cc2Cl)n1", "note": "[CHIR99021]", "values": [{"measurement": "c-Myc phosphorylation", "setting": "c-Myc", "result": "abolished"}]}, {"compound": "LIF: cytokine leukemia inhibitory factor, activates STAT3", "values": [{"measurement": "Akt phosphorylation", "setting": "Akt", "result": "induced"}]}, {"compound": "CN(C)CCCn1cc(C2=C(c3c[nH]c4ccccc34)C(=O)NC2=O)c2ccccc21", "note": "[Bisindolylmaleimide I]", "values": [{"measurement": "ES cell differentiation in the absence of LIF", "setting": "E14 ES cells [1]", "result": "able to inhibit ES cell differentiation, albeit at a lower efficiency than Gö6983"}, {"measurement": "Isoform Specificity β", "setting": "PKC β", "result": "X^1"}]}, {"compound": "Cn1c2ccccc2c2c3c(c4c5ccccc5n(CCC#N)c4c21)CNC3=O", "note": "[Gö6976]", "values": [{"measurement": "ES cell differentiation in the absence of LIF", "setting": "E14 ES cells [1]", "result": "could not prevent differentiation"}, {"measurement": "Isoform Specificity β", "setting": "PKC β", "result": "X^2"}]}, {"compound": "N#CC(=C(/N)Sc1ccccc1N)/C(C#N)=C(/N)Sc1ccccc1N", "note": "[U0216]", "values": [{"measurement": "differentiation of ES cells on collagen IV", "setting": "E14 ES cells [2]", "result": "failed to block differentiation"}]}, {"compound": "CC(=O)c1c(O)c(C)c(O)c(Cc2c(O)c3c(c(C(=O)/C=C/c4ccccc4)c2O)OC(C)(C)C=C3)c1O", "note": "[Rottlerin]", "values": [{"measurement": "ES cell differentiation in the absence of LIF", "setting": "E14 ES cells [1]", "result": "could not prevent differentiation"}]}, {"compound": "Jak-Inhibitor-I", "values": [{"measurement": "effect of added inhibitor on Gö6983-mediated inhibition of mESC differentiation / maintenance of self-renewal", "setting": "mESCs", "result": "ineffective"}]}, {"compound": "O=C(NOC[C@H](O)CO)c1ccc(F)c(F)c1Nc1ccc(I)cc1F", "note": "[PD0325901]", "values": [{"measurement": "ERK1/2 phosphorylation", "setting": "ERK1/2", "result": "almost completely inhibited"}, {"measurement": "Rsk1 phosphorylation", "setting": "p90Rsk1 (Rsk1)", "result": "abolished"}]}, {"compound": "Cn1cc(C2=C(c3c4n(c5ccccc35)CCC(CN)C4)C(=O)NC2=O)c2ccccc21", "note": "(stereo not drawn) [Ro-31-8425]", "values": [{"measurement": "ES cell differentiation in the absence of LIF", "setting": "E14 ES cells [1]", "result": "could not prevent differentiation"}]}]}
